In patent US10798943B2, “Use of 6-anilino purine derivatives to improve heat stress tolerance of rice seedlings” (SYNGENTA PARTICIPATIONS AG, priority 2016, dated 2020):

Assays:
Format in all cases: in vivo
[1] = test system: rice seedlings (hybrid rice variety ADT45); assay: Phytotoxicity assessments at Ramapuram trial; details: for Greenness at 3.2 leaf / Seedling height at 3.2 leaf / Seedling injury / Time to 3.2 leaf / Uniformity of foliage growth at 3.2 leaf / Uniformity of greening at 3.2 leaf / Whiteness of root mat at 3.2 leaf: Ramapuram
Procedure: For each trial, hybrid rice variety ADT45 was sown in seedling boxes. A compound of formula (Ia) was applied by foliar spray in the form of an EC formulation, at various dose rates and seedling growth stages as shown in Table 1. [table] […] The trial was carried out between 5 Aug. 2015 and 9 Sep. 2015, with transplanting on 15 Aug. 2015. The mean maximum daily temperature during the trial period was 35.3° C., and mean minimum daily temperature during the trial period was 23.7° C. The mean temperature during the entire trial period was 30.2° C.

[2] = test system: rice seedlings (hybrid rice variety ADT45) under heat stress; assay: Transplant shock stress, visual assessment of damage severity, Kumbakonam trial; details: for Transplanting shock stress (8th day) / Transplanting shock stress (12th day) / Transplanting shock stress (4th day): Kumbakonam
Description: (§1) Trials were setup in two locations in India to test the effect of compounds of formula I on tolerance of rice seedlings to heat stress during transplantation.
(§2) For each trial, hybrid rice variety ADT45 was sown in seedling boxes. A compound of formula (Ia) was applied by foliar spray in the form of an EC formulation, at various dose rates and seedling growth stages as shown in Table 1.
(§3) Transplanting took place at the […] growth stage. Transplant shock was used as an indicator of tolerance to heat stress, and was measured via visual assessment of damage severity on a scale of 0% (no damage) to 100% (dead plant); observations such as yellowing and leaf tip burning are indicators of damage. Transplant shock was also assessed by measuring NVDI values using a Green Seeker™ crop sensor, which measures the percentage green area. A low transplant shock stress rating and high NVDI rating indicate improved tolerance to transplant shock stress.
(§4) The trial was carried out between 7 May 2015 and 15 Jun. 2015, with transplanting on 29 May 2015. The mean maximum daily temperature during the trial period was 37.3° C., and mean minimum daily temperature during the trial period was 24.9° C. The mean temperature during the entire trial period was 31.1° C.

[3] = test system: rice seedlings (hybrid rice variety ADT45) under heat stress; assay: Green seeker data, Ramapuram trial; set-up: key: percentage green area (NDVI), higher = better tolerance
Description: as §1, §2, §3
as §4, with “5 Aug.” for “7 May”, “9 Sep.” for “15 Jun.”, “15 Aug.” for “29 May”, “35.3°” for “37.3°”, “23.7°” for “24.9°”, “30.2°” for “31.1°”

[4] = treatment 2: 5 g ai/ha, Pigeon-breast
[5] = treatment 3: 10 g ai/ha, Pigeon-breast
[6] = treatment 4: 20 g ai/ha, Pigeon-breast
[7] = treatment 6: 10 g ai/ha, 2-leaf
[8] = treatment 7: 20 g ai/ha, 2-leaf
[9] = treatment 9: 10 g ai/ha, 3-leaf
[10] = treatment 10: 20 g ai/ha, 3-leaf

Compound: COc1cccc(Nc2nc(F)nc3[nH]cnc23)c1 [Formula Ia]
- Phytotoxic effects to the rice seedlings (summary) ([1]; Ramapuram trial, some marginal effects at the highest dose rate): did not cause any phytotoxic effects
- Greenness at 3.2 leaf [1, 4]: 3 unit
- Seedling height at 3.2 leaf [1, 4]: 13 cm
- Seedling injury [1, 4]: 0%
- Time to 3.2 leaf [1, 4]: 14 days
- Uniformity of foliage growth at 3.2 leaf [1, 4]: 90%
- Uniformity of greening at 3.2 leaf [1, 4]: 95%
- Whiteness of root mat at 3.2 leaf [1, 4]: 90%
- Greenness at 3.2 leaf [1, 5]: 3 unit
- Seedling height at 3.2 leaf [1, 5]: 13 cm
- Seedling injury [1, 5]: 0%
- Time to 3.2 leaf [1, 5]: 14 days
- Uniformity of foliage growth at 3.2 leaf [1, 5]: 90%
- Uniformity of greening at 3.2 leaf [1, 5]: 95%
- Whiteness of root mat at 3.2 leaf [1, 5]: 90%
- Greenness at 3.2 leaf [1, 6]: 3 unit
- Seedling height at 3.2 leaf [1, 6]: 13 cm
- Seedling injury [1, 6]: 0%
- Time to 3.2 leaf [1, 6]: 14 days
- Uniformity of foliage growth at 3.2 leaf [1, 6]: 90%
- Uniformity of greening at 3.2 leaf [1, 6]: 95%
- Whiteness of root mat at 3.2 leaf [1, 6]: 90%
- Greenness at 3.2 leaf ([1]; treatment 5: 5 g ai/ha, 2-leaf): 3 unit
- Seedling height at 3.2 leaf ([1]; treatment 5: 5 g ai/ha, 2-leaf): 15 cm
- Seedling injury ([1]; treatment 5: 5 g ai/ha, 2-leaf): 0%
- Time to 3.2 leaf ([1]; treatment 5: 5 g ai/ha, 2-leaf): 13 days
- Uniformity of foliage growth at 3.2 leaf ([1]; treatment 5: 5 g ai/ha, 2-leaf): 90%
- Uniformity of greening at 3.2 leaf ([1]; treatment 5: 5 g ai/ha, 2-leaf): 95%
- Whiteness of root mat at 3.2 leaf ([1]; treatment 5: 5 g ai/ha, 2-leaf): 85%
- Greenness at 3.2 leaf [1, 7]: 3 unit
- Seedling height at 3.2 leaf [1, 7]: 15 cm
- Seedling injury [1, 7]: 2%
- Time to 3.2 leaf [1, 7]: 13 days
- Uniformity of foliage growth at 3.2 leaf [1, 7]: 90%
- Uniformity of greening at 3.2 leaf [1, 7]: 95%
- Whiteness of root mat at 3.2 leaf [1, 7]: 85%
- Greenness at 3.2 leaf [1, 8]: 2.5 unit
- Seedling height at 3.2 leaf [1, 8]: 15 cm
- Seedling injury [1, 8]: 5%
- Time to 3.2 leaf [1, 8]: 13 days
- Uniformity of foliage growth at 3.2 leaf [1, 8]: 90%
- Uniformity of greening at 3.2 leaf [1, 8]: 85%
- Whiteness of root mat at 3.2 leaf [1, 8]: 80%
- Greenness at 3.2 leaf ([1]; treatment 8: 5 g ai/ha, 3-leaf): 3 unit
- Seedling height at 3.2 leaf ([1]; treatment 8: 5 g ai/ha, 3-leaf): 14 cm
- Seedling injury ([1]; treatment 8: 5 g ai/ha, 3-leaf): 0%
- Time to 3.2 leaf ([1]; treatment 8: 5 g ai/ha, 3-leaf): 13 days
- Uniformity of foliage growth at 3.2 leaf ([1]; treatment 8: 5 g ai/ha, 3-leaf): 90%
- Uniformity of greening at 3.2 leaf ([1]; treatment 8: 5 g ai/ha, 3-leaf): 95%
- Whiteness of root mat at 3.2 leaf ([1]; treatment 8: 5 g ai/ha, 3-leaf): 90%
- Greenness at 3.2 leaf [1, 9]: 3 unit
- Seedling height at 3.2 leaf [1, 9]: 15 cm
- Seedling injury [1, 9]: 0%
- Time to 3.2 leaf [1, 9]: 13 days
- Uniformity of foliage growth at 3.2 leaf [1, 9]: 90%
- Uniformity of greening at 3.2 leaf [1, 9]: 95%
- Whiteness of root mat at 3.2 leaf [1, 9]: 90%
- Greenness at 3.2 leaf [1, 10]: 3 unit
- Seedling height at 3.2 leaf [1, 10]: 15 cm
- Seedling injury [1, 10]: 0%
- Time to 3.2 leaf [1, 10]: 13 days
- Uniformity of foliage growth at 3.2 leaf [1, 10]: 90%
- Uniformity of greening at 3.2 leaf [1, 10]: 95%
- Whiteness of root mat at 3.2 leaf [1, 10]: 90%
- Tolerance to heat stress / transplant shock stress, comparison of treatments ([2]; Kumbakonam trial, treatments 5 and 6 (2-leaf growth stage, 5-10 g ai/ha)): giving the best results
- Transplanting shock stress (8th day) [2, 4]: 35%
- Transplanting shock stress (12th day) [2, 4]: 15%
- Transplanting shock stress (4th day) ([2]; treatment 2: 5 g ai/ha, Pigeon-breast, scale 0% no damage to 100% dead plant): 32%
- Transplanting shock stress (4th day) [2, 5]: 38%
- Transplanting shock stress (8th day) [2, 5]: 32%
- Transplanting shock stress (12th day) [2, 5]: 17%
- Transplanting shock stress (4th day) [2, 6]: 30%
- Transplanting shock stress (8th day) [2, 6]: 22%
- Transplanting shock stress (12th day) [2, 6]: 13%
- Transplanting shock stress (4th day) ([2]; treatment 5: 5 g ai/ha, 2-leaf): 15%
- Transplanting shock stress (8th day) ([2]; treatment 5: 5 g ai/ha, 2-leaf): 13%
- Transplanting shock stress (12th day) ([2]; treatment 5: 5 g ai/ha, 2-leaf): 7%
- Transplanting shock stress (4th day) [2, 7]: 30%
- Transplanting shock stress (8th day) [2, 7]: 22%
- Transplanting shock stress (12th day) [2, 7]: 10%
- Transplanting shock stress (4th day) [2, 8]: 35%
- Transplanting shock stress (8th day) [2, 8]: 37%
- Transplanting shock stress (12th day) [2, 8]: 22%
- Transplanting shock stress (4th day) ([2]; treatment 8: 5 g ai/ha, 3-leaf): 27%
- Transplanting shock stress (8th day) ([2]; treatment 8: 5 g ai/ha, 3-leaf): 32%
- Transplanting shock stress (12th day) ([2]; treatment 8: 5 g ai/ha, 3-leaf): 17%
- Transplanting shock stress (4th day) [2, 9]: 42%
- Transplanting shock stress (8th day) [2, 9]: 27%
- Transplanting shock stress (12th day) [2, 9]: 15%
- Transplanting shock stress (4th day) [2, 10]: 45%
- Transplanting shock stress (8th day) [2, 10]: 37%
- Transplanting shock stress (12th day) [2, 10]: 25%
- Green seeker data (15 DAT afternoon) [3, 4]: 28
- Green seeker data (15 DAT evening) [3, 4]: 31
- Green seeker data (15 DAT morning) [3, 4]: 22
- Green seeker data (15 DAT afternoon) [3, 5]: 25
- Green seeker data (15 DAT evening) [3, 5]: 29
- Green seeker data (15 DAT morning) [3, 5]: 25
- Green seeker data (15 DAT afternoon) [3, 6]: 28
- Green seeker data (15 DAT evening) [3, 6]: 25
- Green seeker data (15 DAT morning) [3, 6]: 21
- Green seeker data (15 DAT afternoon) ([3]; treatment 5: 5 g ai/ha, 2-leaf): 27
- Green seeker data (15 DAT evening) ([3]; treatment 5: 5 g ai/ha, 2-leaf): 34
- Green seeker data (15 DAT morning) ([3]; treatment 5: 5 g ai/ha, 2-leaf): 25
- Green seeker data (15 DAT afternoon) [3, 7]: 29
- Green seeker data (15 DAT evening) [3, 7]: 32
- Green seeker data (15 DAT morning) [3, 7]: 28
- Green seeker data (15 DAT afternoon) [3, 8]: 26
- Green seeker data (15 DAT evening) [3, 8]: 26
- Green seeker data (15 DAT morning) [3, 8]: 22
- Green seeker data (15 DAT afternoon) ([3]; treatment 8: 5 g ai/ha, 3-leaf): 26
- Green seeker data (15 DAT evening) ([3]; treatment 8: 5 g ai/ha, 3-leaf): 30
- Green seeker data (15 DAT morning) ([3]; treatment 8: 5 g ai/ha, 3-leaf): 23
- Green seeker data (15 DAT afternoon) [3, 9]: 26
- Green seeker data (15 DAT evening) [3, 9]: 31
- Green seeker data (15 DAT morning) [3, 9]: 23
- Green seeker data (15 DAT afternoon) [3, 10]: 30
- Green seeker data (15 DAT evening) [3, 10]: 29
- Green seeker data (15 DAT morning) [3, 10]: 25
